Where “and” joins values, the source holds several entries; their conditions need not be identical. Equal values may be shown once. Toxic doses and inconclusive results are not listed. How the source made its calls: active means survival T/C of 150% or more; inactive means T/C below 125% in these data.
Test system: P388 leukemia ip, CD2F1 mice, survival T/C
Test: NCI In Vivo Anticancer Drug Screen. Data for tumor model P388 Leukemia (intraperitoneal) in CD2F1 (CDF1) mice
Conditions: endpoint: median survival time, higher = longer survival
In short: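 Mice carrying the transplanted tumor received test compound or vehicle. Survival was recorded in each group, and the value is the treated-group measurement divided by that of the vehicle-treated control group.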

[1] = dose: 15.0 mg/kg/injection, schedule: Q01DX005 (ip), vehicle: saline with Tween-80
[2] = dose: 30.0 mg/kg/injection, schedule: Q01DX005 (ip), vehicle: saline with Tween-80
[3] = dose: 60.0 mg/kg/injection, schedule: Q01DX005 (ip), vehicle: saline with Tween-80
[4] = dose: 50.0 mg/kg/injection, schedule: Q01DX005 (ip), vehicle: saline with Tween-80
[5] = dose: 100.0 mg/kg/injection, schedule: Q01DX005 (ip), vehicle: saline with Tween-80
[6] = dose: 200.0 mg/kg/injection, schedule: Q01DX005 (ip), vehicle: saline with Tween-80
[7] = dose: 120.0 mg/kg/injection, schedule: Q01DX005 (ip), vehicle: saline with Tween-80
[8] = dose: 100.0 mg/kg/injection, schedule: Q01DX009 (ip), vehicle: Klucel (hydroxypropylcellulose) (HPC)

Measured: T/C

C=C1CC/C=C(/C)C(=O)C(OC(C)=O)C2C1CC2(C)C (stereo unspecified)
inactive: dose: 1.75 mg/kg/injection, schedule: Q01DX009 (ip), vehicle: saline + Tween-80 + alcohol 105 % of control | dose: 1.75 mg/kg/injection, schedule: Q01DX009 (ip), vehicle: saline + alcohol 105 % of control and 111 % of control | dose: 3.5 mg/kg/injection, schedule: Q01DX009 (ip), vehicle: saline + Tween-80 + alcohol 102 % of control | dose: 3.5 mg/kg/injection, schedule: Q01DX009 (ip), vehicle: saline + alcohol 102 % of control and 103 % of control and 114 % of control | dose: 7.0 mg/kg/injection, schedule: Q01DX009 (ip), vehicle: saline + Tween-80 + alcohol 111 % of control | dose: 7.0 mg/kg/injection, schedule: Q01DX009 (ip), vehicle: saline + alcohol 101 % of control and 105 % of control and 114 % of control | dose: 14.0 mg/kg/injection, schedule: Q01DX009 (ip), vehicle: saline + Tween-80 + alcohol 116 % of control | dose: 14.0 mg/kg/injection, schedule: Q01DX009 (ip), vehicle: saline + alcohol 111 % of control and 113 % of control and 114 % of control | dose: 28.0 mg/kg/injection, schedule: Q01DX009 (ip), vehicle: saline + Tween-80 + alcohol 120 % of control | dose: 28.0 mg/kg/injection, schedule: Q01DX009 (ip), vehicle: saline + alcohol 111 % of control and 115 % of control and 121 % of control | dose: 56.0 mg/kg/injection, schedule: Q01DX009 (ip), vehicle: saline + Tween-80 + alcohol 116 % of control

COc1ccc(-c2cn3c([nH]c(=O)c4ccccc43)c2C#N)cc1
inactive: [1] 86 % of control | [2] 88 % of control | [3] 86 % of control

O=C1/C(=C\c2ccc3c(c2)OCO3)SC(=S)N1CCCN1CCOCC1
inactive: [4] 92 % of control | [5] 90 % of control | [6] 93 % of control

O=C(COc1ccc(Cl)cc1Cl)NC(O)C(Cl)(Cl)Cl (stereo unspecified)
inactive: dose: 100.0 mg/kg/injection, schedule: Q04DX003 (ip), vehicle: saline with Tween-80 108 % of control | dose: 200.0 mg/kg/injection, schedule: Q04DX003 (ip), vehicle: saline with Tween-80 116 % of control | dose: 400.0 mg/kg/injection, schedule: Q04DX003 (ip), vehicle: saline with Tween-80 100 % of control

Nc1ccc2cc(S(=O)(=O)O)cc(O)c2c1N=Nc1ccc(NC(=O)c2ccc(C(=O)Nc3ccc(N=Nc4c(N)ccc5cc(S(=O)(=O)O)cc(O)c45)c(S(=O)(=O)O)c3)cc2)cc1S(=O)(=O)O
inactive: dose: 12.5 mg/kg/injection, schedule: Q01DX005 (ip), vehicle: saline with Tween-80 101 % of control | dose: 25.0 mg/kg/injection, schedule: Q01DX005 (ip), vehicle: saline with Tween-80 96 % of control | [4] 98 % of control

NC(=O)c1ccc(C(N)=O)cc1
inactive: dose: 12.5 mg/kg/injection, schedule: Q01DX009 (ip), vehicle: saline with Tween-80 100 % of control | dose: 25.0 mg/kg/injection, schedule: Q01DX009 (ip), vehicle: saline with Tween-80 100 % of control | dose: 50.0 mg/kg/injection, schedule: Q01DX009 (ip), vehicle: saline with Tween-80 95 % of control

COc1ccccc1C1=NC(C)(C)CO1
inactive: [4] 99 % of control | [5] 94 % of control | [6] 91 % of control

COc1cc(OC)c2cc(-n3nnc4cc([N+](=O)[O-])ccc43)c(=O)oc2c1
inactive: dose: 7.5 mg/kg/injection, schedule: Q01DX005 (ip), vehicle: saline with Tween-80 100 % of control | [1] 95 % of control | [2] 88 % of control | [3] 88 % of control

CC1=CC(=C2C(=O)c3ccccc3C2=O)C=C(C)N1CCN1CCCCC1
inactive: dose: 50.0 mg/kg/injection, schedule: Q01DX005 (ip), vehicle: saline 98 % of control | dose: 60.0 mg/kg/injection, schedule: Q01DX005 (ip), vehicle: Klucel (hydroxypropylcellulose) (HPC) 90 % of control | dose: 100.0 mg/kg/injection, schedule: Q01DX005 (ip), vehicle: saline 99 % of control | dose: 120.0 mg/kg/injection, schedule: Q01DX005 (ip), vehicle: Klucel (hydroxypropylcellulose) (HPC) 95 % of control

CCCCCCCCCCN(CCCCCCCCCC)C(=O)C(C)OC(C)=O (stereo unspecified)
inactive: [4] 98 % of control | [5] 101 % of control | [6] 104 % of control

C/C(=N\Oc1ncc([N+](=O)[O-])c(O/N=C(\C)c2ccccc2)n1)c1ccccc1
inactive: [3] 100 % of control | [7] 88 % of control | dose: 240.0 mg/kg/injection, schedule: Q01DX005 (ip), vehicle: saline with Tween-80 91 % of control

C=C1C(=O)OC2/C=C(\CO)C(OC(C)=O)CC(O)/C(C)=C/C(OC(=O)C(C)CC)C12 (stereo unspecified)
inactive: dose: 6.25 mg/kg/injection, schedule: Q01DX009 (ip), vehicle: Klucel (hydroxypropylcellulose) (HPC) 111 % of control | dose: 12.5 mg/kg/injection, schedule: Q01DX009 (ip), vehicle: Klucel (hydroxypropylcellulose) (HPC) 119 % of control | [8] 121 % of control

O=C(O)c1ccccc1SSC(=S)N1CCOCC1
inactive: dose: 50.0 mg/kg/injection, schedule: Q01DX009 (ip), vehicle: Klucel (hydroxypropylcellulose) (HPC) 93 % of control | [8] 108 % of control | dose: 200.0 mg/kg/injection, schedule: Q01DX009 (ip), vehicle: Klucel (hydroxypropylcellulose) (HPC) 118 % of control

COc1ccc2nc3cc(Cl)ccc3c(NCCCNCCCCNCCCNc3c4ccc(Cl)cc4nc4ccc(OC)cc34)c2c1
inactive: dose: 0.62 mg/kg/injection, schedule: Q01DX009 (ip), vehicle: other 106 % of control | dose: 1.25 mg/kg/injection, schedule: Q01DX009 (ip), vehicle: other 110 % of control | dose: 2.5 mg/kg/injection, schedule: Q01DX009 (ip), vehicle: other 119 % of control

CCOP(=O)(OCC)SCSC(C)C
inactive: dose: 0.04 mg/kg/injection, schedule: Q01DX009 (ip), vehicle: Klucel (hydroxypropylcellulose) (HPC) 102 % of control | dose: 0.09 mg/kg/injection, schedule: Q01DX009 (ip), vehicle: Klucel (hydroxypropylcellulose) (HPC) 102 % of control | dose: 0.19 mg/kg/injection, schedule: Q01DX009 (ip), vehicle: Klucel (hydroxypropylcellulose) (HPC) 108 % of control

CCOC(=O)c1c(C)[nH]oc1=O
inactive: dose: 25.0 mg/kg/injection, schedule: Q01DX009 (ip), vehicle: saline sonified 109 % of control | dose: 50.0 mg/kg/injection, schedule: Q01DX009 (ip), vehicle: saline sonified 100 % of control | dose: 100.0 mg/kg/injection, schedule: Q01DX009 (ip), vehicle: saline sonified 100 % of control

O=C(Nc1ccc(NC2=NCCN2)cc1)c1cc(Cl)cc(C(=O)Nc2ccc(NC3=NCCN3)cc2)c1
inactive: dose: 12.5 mg/kg/injection, schedule: Q01DX005 (ip), vehicle: Klucel (hydroxypropylcellulose) (HPC) 98 % of control | dose: 25.0 mg/kg/injection, schedule: Q01DX005 (ip), vehicle: Klucel (hydroxypropylcellulose) (HPC) 102 % of control

ClCc1nnc2n1-c1ccc(Cl)cc1SC2
inactive: [3] 106 % of control | [7] 107 % of control

CC1=C(/C=C/C(C)=C/C=C/C(C)=C/C=C2/CCOC2=O)C(C)(C)CCC1
inactive: dose: 50.0 mg/kg/injection, schedule: Q01DX001 (ip), vehicle: saline with Tween-80 96 % of control | dose: 100.0 mg/kg/injection, schedule: Q01DX001 (ip), vehicle: saline with Tween-80 96 % of control | dose: 200.0 mg/kg/injection, schedule: Q01DX001 (ip), vehicle: saline with Tween-80 100 % of control

CCN=C(CC(=O)C12CC3CC(CC(C3)C1)C2)N(CC)CC
inactive: dose: 12.5 mg/kg/injection, schedule: Q01DX009 (ip), vehicle: saline 109 % of control | dose: 25.0 mg/kg/injection, schedule: Q01DX009 (ip), vehicle: saline 112 % of control | dose: 50.0 mg/kg/injection, schedule: Q01DX009 (ip), vehicle: saline 100 % of control and 103 % of control

CCc1ccc(O)c(CN2CCN(Cc3cc(CC)ccc3O)CC2)c1
inactive: [1] 89 % of control | [2] 86 % of control

S=C(Nc1ccc(I)cc1)SCc1ccc(Cl)cc1
inactive: dose: 50.0 mg/kg/injection, schedule: Q01DX009 (ip), vehicle: suspension in saline 104 % of control | dose: 100.0 mg/kg/injection, schedule: Q01DX009 (ip), vehicle: suspension in saline 111 % of control | dose: 200.0 mg/kg/injection, schedule: Q01DX009 (ip), vehicle: suspension in saline 119 % of control

N#CNc1nnnn1-c1ccc(-n2nnnc2NC#N)cc1 (tested in a mixture with another compound)
inactive: dose: 100.0 mg/kg/injection, schedule: Q04DX003 (ip), vehicle: Klucel (hydroxypropylcellulose) (HPC) 92 % of control | dose: 200.0 mg/kg/injection, schedule: Q04DX003 (ip), vehicle: Klucel (hydroxypropylcellulose) (HPC) 91 % of control | dose: 400.0 mg/kg/injection, schedule: Q04DX003 (ip), vehicle: Klucel (hydroxypropylcellulose) (HPC) 90 % of control

From PubChem BioAssay AID330 (DTP/NCI, 2004)
